Measured values from patent publication US20150126534A1, “ENZYME AND RECEPTOR MODULATION” (Chroma Therapeutics Ltd, priority 2005, published 2015).
Counter-ions that a name gives are not always drawn. Like-named read-outs stand apart in the source and are kept apart here. Blank lines part the entries; values can stand above or below the compound they belong to.

What was measured:
[1] = tested on: U937 cells (monocytic cell line); test: Cell proliferation inhibition assay (WST-1), U937; format: cell-based; settings: for IC50: Homo sapiens
Protocol: (§1) Following 24 h of growth cells were treated with compound. Plates were then re-incubated for a further 72-96 h before a WST-1 cell viability assay was conducted according to the suppliers (Roche Applied Science) instructions.
(§2) Data were expressed as a percentage inhibition of the control, measured in the absence of inhibitor, as follows: —
(§3) where S^i is the signal in the presence of inhibitor and S^o is the signal in the presence of DMSO.
(§4) Dose response curves were generated from 8 concentrations (top final concentration 10 μM, with 3-fold dilutions), using 6 replicates.

human aurora kinase A = target: T1, human aurora kinase A (Homo sapiens, UniProt O14965); test: Aurora kinase A inhibitory activity assay (Flashplate, 33P-ATP); format: biochemical; settings: 10 μM ATP; read-out: Enzyme inhibition IC50 nM (Aurora kinase A)
T1 construct: recombinant, full length human aurora kinase A, N-terminally fused to GST; GST (N); purchased ProQuinase (so in the source); host or cells: baculovirus / Sf21 insect cells
T1 sequence (O14965 1-403): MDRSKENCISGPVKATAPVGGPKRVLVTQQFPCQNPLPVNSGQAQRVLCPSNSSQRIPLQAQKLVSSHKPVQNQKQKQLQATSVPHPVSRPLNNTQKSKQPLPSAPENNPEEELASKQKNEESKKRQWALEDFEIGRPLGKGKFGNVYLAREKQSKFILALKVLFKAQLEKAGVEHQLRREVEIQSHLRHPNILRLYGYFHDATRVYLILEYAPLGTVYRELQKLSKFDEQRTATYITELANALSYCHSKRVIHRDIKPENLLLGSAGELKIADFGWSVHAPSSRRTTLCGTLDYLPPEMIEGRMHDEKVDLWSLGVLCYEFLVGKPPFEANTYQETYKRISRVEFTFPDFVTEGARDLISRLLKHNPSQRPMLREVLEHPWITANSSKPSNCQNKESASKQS
Protocol: The ability of compounds to inhibit aurora kinase A activity was measured using a microplate assay. In brief, 96-well Flashplates® (PerkinElmer Life Sciences) were pre-coated with myelin basic protein (MBP). MBP (100 ul of […] in PBS) was incubated at 37° C. for 1 h, followed by overnight incubation at 4° C. Plates were then washed with PBS and allowed to air dry.
Wells lacking inhibitor were used as vehicle controls and wells containing no enzyme were used to measure the ‘background’ signal. Plates were incubated overnight at 30° C. After incubation the contents of the wells were removed and the plates washed three times with PBS containing 10 mM tetra sodium pyrophosphate prior to scintillation counting using a Wallac MicroBeta TriLux.
Dose response curves were generated from 10 concentrations (top final concentration 10 μM, with 3-fold dilutions), using triplicate wells.
[…] values were determined by non-linear regression analysis, after fitting the data point results to the equation for sigmoidal dose response with variable slope (% activity against log concentration of compound), using Xlf it software.

PI 3-kinase γ = target: T2, PI 3-kinase γ (Homo sapiens, UniProt P48736); test: PI 3-kinase γ inhibition assay (HTRF); format: biochemical; settings: 100 μM MgATP; read-out: Enzyme inhibition IC50 nM (PI3-Kinase)
T2 construct: recombinant N-terminally His6-tagged, full length human enzyme; His6 (N); purchased Upstate (Dundee, UK), assay run by the vendor; host or cells: baculovirus / Sf21 insect cells
Text: The measurement of PI 3-kinase γ activity is dependent upon the specific and high affinity binding of the GRP1 pleckstrin homology (PH) domain to PIP3, the product of PI 3-kinase activity. A complex is formed between europium-labelled anti-GST monoclonal antibody, a GST-tagged GRP1 PH domain, biotinylated PIP3 and streptavidin-allophycocyanin (APC). This complex generates a stable time-resolved fluorescence resonance energy transfer (FRET) signal, which is diminished by competition of PIP3, generated in the PI 3-kinase assay, with the biotinylated PIPS.
The reaction was initiated by the addition of the MgATP mix. After incubation for 30 minutes at room temperature, the reaction was stopped by the addition of 5 μl of stop solution containing EDTA and biotinylated phosphatidylinositol-3,4,5-trisphosphate. Finally, 5 μl of detection buffer was added, which contained europium-labelled anti-GST monoclonal antibody, GST-tagged GRP1 PH domain and streptavidin-APC. The plate was then read in time-resolved fluorescence mode and the homogenous time-resolved fluorescence (HTRF) signal was determined according to the formula HTRF=10000×(Em665 nm/Em620 nm).
Duplicate data points were generated from a ½ log dilution series of a stock solution of compound in DMSO. Nine dilutions steps were made from a top final concentration of 10 μM, and a ‘no compound’ blank was included. HTRF ratio data were transformed into % activity of controls and analysed with a four parameter sigmoidal dose-response (variable slope) application. The concentration giving 50% inhibition (1050) was determined.

[2] = tested on: HCT116 (non-monocytic cell line); test: Cell proliferation inhibition assay (WST-1), HCT116; format: cell-based; settings: for IC50: Homo sapiens; for Ratio IC50 cell/enzyme: HCT116 cell proliferation IC50 / DHFR enzyme IC50
Protocol: as §1, §2, §3, §4

[3] = tested on: TNFα production in human whole blood; test: LPS-stimulation of human whole blood, TNF-α ELISA; format: cell-based; settings: for IC50: Homo sapiens, 6 h; for Ratio IC50 WB/enzyme: whole blood TNFα IC50 / P38 MAP kinase IC50
Protocol: Whole blood was taken by venous puncture using heparinised vacutainers (Becton Dickinson) and diluted in an equal volume of RPMI1640 tissue culture media. 100 μl was plated in V-bottomed 96 well tissue culture plates. Inhibitor was added in 100 μl of RPMI1640 media, and 2 h later the blood was stimulated with LPS (E coli strain 005:B5, Sigma) at a final concentration of 100 ng/ml and incubated at 37° C. in 5% CO2 for 6 h. TNF-α levels were measured from cell-free supernatants by sandwich ELISA (R&D Systems #QTA00B).

p38 MAP kinase α = target: T3, p38 MAP kinase α (Homo sapiens, UniProt Q16539); test: P38 MAP kinase α inhibitory activity assay; format: biochemical; settings: ATP 90 μM; read-out: Enzyme inhibition IC50 nM (P38 MAP kinase)
T3 construct: full length human enzyme expressed in E coli as an N-terminally GST-tagged protein; GST (N); purchased Upstate (Dundee UK), assay run by the vendor; host or cells: E. coli
Protocol: The ability of compounds to inhibit p38 MAP kinase α (full length human enzyme expressed in E coli as an N-terminally GST-tagged protein) activity was measured in an assay performed by Upstate (Dundee UK). […] The reaction was initiated by the addition of the MgATP mix. After incubation for 40 minutes at room temperature, the reaction was stopped by the addition of 5 μl of a 3% phosphoric acid solution. 10 μl of the reaction was then spotted onto a P30 filtermat and washed three times for 5 minutes in 75 mM phosphoric acid and once in methanol, prior to drying and scintillation counting.
Dose response curves were generated from a ½ log dilution series of a stock inhibitor solution in DMSO. Nine dilutions steps were made from a top, final concentration of 10 μM, and a ‘no compound’ blank was included. Samples were run in duplicate. Data from scintillation counts were collected and subjected to free-fit analysis by Graphpad Prism software. From the curve generated, the concentration giving 50% inhibition was determined.

[4] = U-937, U937 monocytic cell line, read-out: Cell proliferation IC50 nM (U937 cells)
[5] = U937 cell proliferation IC50 / Aurora kinase A IC50
[6] = HCT-116, HCT116 non-monocytic cell line, read-out: Cell proliferation IC50 nM (HCT116)
[7] = U-937, read-out: Cell proliferation IC50 nM (U937 cells)
[8] = U937 cell proliferation IC50 / DHFR enzyme IC50
[9] = LPS 100 ng/ml, read-out: Inhibition of TNFα production in human whole blood IC50

T3 sequence (Q16539 whole entry): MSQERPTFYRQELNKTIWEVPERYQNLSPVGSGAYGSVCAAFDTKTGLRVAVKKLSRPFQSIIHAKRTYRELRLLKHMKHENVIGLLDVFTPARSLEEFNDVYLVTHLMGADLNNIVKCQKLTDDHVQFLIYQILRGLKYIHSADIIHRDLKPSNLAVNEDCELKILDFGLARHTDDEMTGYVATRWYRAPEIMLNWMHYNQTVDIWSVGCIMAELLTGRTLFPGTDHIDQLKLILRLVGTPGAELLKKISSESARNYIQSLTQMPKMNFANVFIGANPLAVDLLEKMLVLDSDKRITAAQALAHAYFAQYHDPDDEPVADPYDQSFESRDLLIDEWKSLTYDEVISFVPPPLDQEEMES
T2 sequence (P48736 whole entry): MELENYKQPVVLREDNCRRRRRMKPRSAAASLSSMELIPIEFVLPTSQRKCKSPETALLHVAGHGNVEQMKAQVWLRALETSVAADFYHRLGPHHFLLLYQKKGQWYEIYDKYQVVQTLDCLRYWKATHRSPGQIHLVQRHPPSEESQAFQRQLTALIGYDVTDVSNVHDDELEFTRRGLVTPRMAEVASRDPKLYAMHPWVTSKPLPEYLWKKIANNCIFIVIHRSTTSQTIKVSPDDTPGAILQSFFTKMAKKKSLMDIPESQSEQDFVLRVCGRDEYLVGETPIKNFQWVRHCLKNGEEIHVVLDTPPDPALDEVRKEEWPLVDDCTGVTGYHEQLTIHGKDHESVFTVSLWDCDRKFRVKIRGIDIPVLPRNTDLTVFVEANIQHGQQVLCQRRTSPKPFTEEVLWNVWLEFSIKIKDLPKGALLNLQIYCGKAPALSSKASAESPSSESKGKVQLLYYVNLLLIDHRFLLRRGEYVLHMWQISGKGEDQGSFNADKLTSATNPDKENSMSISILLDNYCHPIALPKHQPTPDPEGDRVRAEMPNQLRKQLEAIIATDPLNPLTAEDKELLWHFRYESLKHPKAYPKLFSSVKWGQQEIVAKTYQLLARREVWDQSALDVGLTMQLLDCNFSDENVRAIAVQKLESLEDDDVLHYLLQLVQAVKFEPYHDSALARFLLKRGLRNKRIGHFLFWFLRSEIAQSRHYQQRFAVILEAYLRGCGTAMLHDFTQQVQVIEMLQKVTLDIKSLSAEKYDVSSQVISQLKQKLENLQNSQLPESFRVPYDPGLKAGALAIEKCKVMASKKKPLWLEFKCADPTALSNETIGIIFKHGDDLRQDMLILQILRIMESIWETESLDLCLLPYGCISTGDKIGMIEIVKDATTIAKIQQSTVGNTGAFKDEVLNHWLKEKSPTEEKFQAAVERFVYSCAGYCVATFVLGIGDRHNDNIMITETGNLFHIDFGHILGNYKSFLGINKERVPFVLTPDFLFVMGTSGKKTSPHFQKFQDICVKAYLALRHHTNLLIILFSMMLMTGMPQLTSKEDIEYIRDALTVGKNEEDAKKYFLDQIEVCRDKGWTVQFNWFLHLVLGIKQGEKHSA

Structure (SMILES): COc1cc2nccc(Oc3ccc(NC(=O)c4ccccc4)cc3)c2cc1OC [Compound 11, N-{4-(7-methoxy-6-methoxy-quinoline-4-yloxy)-phenyl}-benzamide, reference compound]
IC50 [1, 4]: 430 nM
Ratio IC50 cell/enzyme [1, 5]: 1.3
IC50 (human aurora kinase A): 350 nM

Structure (SMILES): Cc1nc(NC(=O)CC[C@H](N)C(=O)O)sc1-c1ccc(Cl)c(S(C)(=O)=O)c1 [Compound 22, (S)-2-Amino-4-[5-(4-chloro-3-methanesulfonyl-phenyl)-4-methyl-thiazol-2-ylcarbamoyl]-butyric acid]
IC50 (PI 3-kinase γ): 3600 nM

Structure (SMILES): COc1cc2c(Oc3ccc(NC(=O)c4ccccc4)cc3)ccnc2cc1OCC[C@H](NC1CCCCC1)C(=O)OC1CCCC1 [Compound 25, (S)-4-[4-(4-Benzoylamino-phenoxy)-6-methoxy-quinolin-7-yloxy]-2-cyclohexylamino-butyric acid cyclopentyl ester]
IC50 [1, 4]: 1900 nM
IC50 [2, 6]: 6100 nM

Structure (SMILES): O=C(CCCCCCC(=O)Nc1ccccc1)NO [Compound 7, Suberoylanilide hydroxamic acid, reference compound]
IC50 [1, 7]: 400 nM

Structure (SMILES): Nc1c(C(=O)c2ccc(F)cc2F)ccc(=O)n1-c1c(F)cc(OCC[C@H](N)C(=O)OC2CCCC2)cc1F [Compound 16, cyclopentyl (S)-2-Amino-4-(4-[6-amino-5-(2,4-difluorobenzoyl)-2-oxo-2H-pyridin-1-yl]-3,5-difluorophenoxy)butanoate trifluoroacetate]
IC50 ([3]; read-out: Inhibition of TNFα production in human whole blood IC50 nM): 20 nM
Ratio IC50 WB/enzyme [3]: 0.8
IC50 (p38 MAP kinase α): 25 nM

Structure (SMILES): COc1cc2c(Oc3ccc(NC(=O)c4ccccc4)cc3)ccnc2cc1OCC[C@H](N)C(=O)O [Compound 13]
IC50 [1, 4]: > 5000 nM
IC50 (human aurora kinase A): 500 nM

Structure (SMILES): COc1cc(NCc2cnc3nc(N)nc(N)c3c2C)cc(OC)c1OC [Compound 2 G = N, 5-Methyl-6-((3,4,5-trimethoxyphenylamino)methyl)pyrido[2,3-d]pyrimidine-2,4-diamine, reference compound]
IC50 [1, 7]: 2200 nM
Ratio IC50 cell/enzyme [1, 8]: 220
selectivity between a monocytic and non-monocytic cell line (cell proliferation) ([1]; U937 versus HCT116): no selectivity
Ratio IC50 cell/enzyme [2]: 170
IC50 ([2]; HCT-116, read-out: Cell proliferation IC50 nM (HCT116)): 1700 nM

Structure (SMILES): Nc1c(C(=O)c2ccc(F)cc2F)ccc(=O)n1-c1c(F)cc(OCC[C@H](N)C(=O)O)cc1F [Compound 17, (S)-2-Amino-4-(4-[6-amino-5-(2,4-difluorobenzoyl)-2-oxo-2H-pyridin-1-yl]-3,5-difluorophenoxy)butanoic acid]
IC50 (p38 MAP kinase α): 30 nM

Structure (SMILES): Nc1c(C(=O)c2ccc(F)cc2F)ccc(=O)n1-c1c(F)cccc1F [Compound 15, 6-Amino-5-(2,4-difluoro-benzoyl)-1-(2,6-difluoro-phenyl)-1H-pyridin-2-one, reference compound]
IC50 [3, 9]: 300 nM
Ratio IC50 WB/enzyme [3]: 6
IC50 (p38 MAP kinase α): 50 nM

The next lines start with results.

IC50 [1, 4]: 3.5 nM
IC50 (human aurora kinase A): 2300 nM
Structure (SMILES): COc1cc2c(Oc3ccc(NC(=O)c4ccccc4)cc3)ccnc2cc1OCC[C@H](N)C(=O)OC1CCCC1 [Compound 12, (S)-2-amino-4-[4-(4-benzoylamino-phenoxy)-6-methoxy-quinolin-7-yloxy]-butyric acid cyclopentyl ester]
Ratio IC50 cell/enzyme [1, 5]: 0.0015

IC50 [1, 4]: 5100 nM
IC50 [2, 6]: 7300 nM
Structure (SMILES): Cc1c(CNc2ccc(OCC[C@H](N)C(=O)OC3CCCC3)cc2)cnc2nc(N)nc(N)c12 [Compound 3, (S)-2-Amino-4-{4-[(2,4-diamino-5-methyl-pyrido[2,3-d]pyrimidin-6-ylmethyl)-amino]-phenoxy}-butyric acid cyclopentyl ester]
Ratio IC50 cell/enzyme [1, 8]: 1.9
Ratio IC50 cell/enzyme [2]: 1.4

IC50 [3, 9]: 750 nM
IC50 (p38 MAP kinase α): 40 nM
Structure (SMILES): CC(C)(C)OC(=O)[C@@H](N)CCOc1cc(F)c(-n2c(N)c(C(=O)c3ccc(F)cc3F)ccc2=O)c(F)c1 [Compound 18, (S)-2-Amino-4-{4-[6-amino-5-(2,4-difluoro-benzoyl)-2-oxo-2H-pyridin-1-yl]-3,5-difluoro-phenoxy}-butyric acid tert-butyl ester]
Ratio IC50 WB/enzyme [3]: 18

IC50 [1, 4]: 23 nM
IC50 [2, 6]: 110 nM
Structure (SMILES): Cc1c(CNc2ccc(C(=O)N[C@@H](CC(C)C)C(=O)OC3CCCC3)cc2)cnc2nc(N)nc(N)c12 [Compound 6, (S)-2-{4-[(2,4-Diamino-5-methyl-pyrido[2,3-d]pyrimidin-6-ylmethyl)-amino]-benzoylamino}-4-methyl-pentanoic acid cyclopentyl ester]
Ratio IC50 cell/enzyme [1, 8]: 0.013
fold more potent than the unmodified analogue (2 G=N) ([1]; U937 cells): 100 fold
fold more potent than the unmodified analogue (2 G=N) ([2]; HCT116): 15 fold
Ratio IC50 cell/enzyme [2]: 0.04

IC50 [1, 4]: 75 nM
IC50 (human aurora kinase A): 3000 nM
Structure (SMILES): COc1cc2c(Oc3ccc(NC(=O)c4ccccc4)cc3)ccnc2cc1OCC[C@H](N)C(=O)OC(C)(C)C [Compound 14, (S)-2-Amino-4-[4-(4-benzoylamino-phenoxy)-6-methoxy-quinolin-7-yloxy]-butyric acid tert-butyl ester]
fold less active in the cell assay than cyclopentyl ester (Compound 12) ([1]; U937 cell proliferation): ~20 fold
Ratio IC50 cell/enzyme [1, 5]: 0.025
